Source: patent US5840711A, “Compositions containing lithium inorganic salts and anti-viral drugs and method of treating viral infections such as acquired immunodeficiency syndrome” (priority 1997, dated 1998)
“Also recorded” adds a separate entry of the source. Where two headings read alike, the source gives them in different places.

Key:
[1] = test system: CFU-GM of Normal Bone Marrow
Experimental: (§1) The laboratory studies were performed in vitro to evaluate whether either drugs, i.e., with or without their lithium formulation when combined with either normal bone marrow cells or bone marrow cells taken from MAIDS animals would express: 1) differences in their toxicity profile when measured in culture and 2) differences comparing the responses using normal bone marrow cells versus bone marrow cells from MAIDS animals, in other words, comparing viral-infected cells with non-viral infected cells.
(§2) This table is interpreted as follows.

[2] = test system: BFU-E of Normal Bone Marrow
Experimental: as §1, §2

[3] = test system: Normal Mice
Experimental: C57BL6 were administered dose-escalation AZT (1.0 mg/ml and 2.5 mg/ml) for a period of 4-weeks. […] Animals were analyzed on a weekly basis for their peripheral blood indices.
C57BL6 female mice were purchased from Harlan, Indianapolis, Ind., USA used at 6-12 weeks of age, and housed 5 to a cage. […] Mice received Purina Autoclavable Chow and water ad libitum until initiation of the study. Thereafter, water containing lithium was supplied to the animals and daily water consumption was monitored.
In order to evaluate the ability of lithium to influence the hematopoietic toxicity associated with AZT in mice that had already been exposed to AZT, the following protocol was established. […] AZT and lithium were added to the animal drinking water Groups II, III, V and VI began their AZT all at the same time. Groups V and VI, at the beginning of week 5, received lithium that was added to their water supply. All treated groups then continued to receive AZT for an additional 4 weeks, equaling a total treatment-study period lasting 8-weeks in duration.
Animals were serially sacrificed, at least three to a group, on a weekly basis, for eight consecutive weeks. Animals were bled from the tail vein (600 μl) for assessment of peripheral blood indices; i.e., packed red cell volume, white blood cell, and platelet counts. In addition, at least one femur per animal was obtained and the bone marrow cellularity was calculated using standard laboratory procedures.
Mean±SE for values comparing control with experimental, utilizing duplicate studies were determined and analyzed using the two-sample ranks test of Wilcoxam-White (P<0.05) to determine significance.

[4] = test system: BFU-E (Erythroid) of normal bone marrow cells; assay: AZT bone marrow toxicity in vitro, BFU-E colony formation; assay type: cell-based
Source text: (§3) This is a standard practice.

[5] = test system: HIV-positive patient with severe Factor VIII deficiency; settings: cited from earlier work
[6] = test system: AIDS patients; settings: clinical use; listed as zidovudine (AZT); cited from earlier work
[7] = test system: CFU-Meg (Megakaryocyte) of normal bone marrow cells; assay: AZT bone marrow toxicity in vitro, CFU-Meg colony formation; assay type: cell-based
Source text: as §3

[8] = test system: CFU-GM (Myeloid) of normal bone marrow cells; assay: AZT bone marrow toxicity in vitro, CFU-GM colony formation; assay type: cell-based
Source text: as §3

[9] = test system: HIV-infected patients; settings: cited from earlier work
[10] = test system: herpes simplex virus; settings: in vitro, cited from earlier work
[11] = test system: normal bone marrow cells; settings: in vitro with normal bone marrow cells (previous work; b10 also in vivo mice); cited from earlier work
[12] = test system: LP-BM5 MuLV; settings: cited from earlier work
[13] = test system: LP-BM5 MuLV
Source text: Female C57BL6 mice (8-10 weeks of age) were purchased from Harlan, Indianapolis, Ind., USA. All animals were quarantined for a minimum of 1-week before experimental use. Animals were housed in plastic cages and fed Purina lab chow and water ad libitum.
LP-BM5 MuLV isolate used in these studies was originally derived from a bone marrow stromal cell line (SC-1) harvested from animals infected with mink cell MuLV (Morse et al., 1992) and is routinely maintained in the laboratory. LP-BM5 MuLV is a retrovirus mixture containing replication-competent helper B-trophic ecotropic mink cell focus forming (MCF) virus and an etiologic 4.9-kb replication defective genome termed EM5-def, susceptibility to which depends on the presence of the FV-1b genotype permissive for B-trophic virus replication (Morse et al., 1992). Therefore, the viral pool permissive for B-trophic virus replication (Morse et al., 1992) consisted of a mixture of B-tropic ecotropic and B-tropic mink cell focus-inducing murine immunodeficiency virus (MuLV). The titers of ecotropic and MCF MuLV were determined by XC plaque assay in SC-1 cells or by SC-1 UV-mink assay. […] To minimize exogenous infection, mice were maintained in microisolator cages and handled in accordance with the NIH Guide for the Care and Use of Laboratory Animals (NIH No. 85-23, 1985). Cages, bedding and food were autoclaved prior to use and all cages and animal handling or monitoring were performed in laminar air flow hoods. Ventilation and air flow in the animal facility was set to 12 changes/h. Room temperatures were regulated at 72°±2° F. and the rooms were on automatic 12-h light/dark cycles. One hundred and twenty mice were infected by i.p. injection of 0.25 ml of LP-BM5 MuLV virus-stock (10 μg of total protein) harvested from the SC-1 cell line following 3-day in vitro culture. The development of MAIDS induced by virus was monitored by physical findings (Morse et al., 1992). […] Increased systemic levels of IgM were used to monitor the development of LP-BM5 MuLV-induced disease.
In order to evaluate the ability of lithium to influence hematopoiesis in immunodeficient virus-infected animals, the following studies were performed. One hundred and twenty mice infected with LP-BM5 were divided into two groups, i.e., 60 virus-infected mice served as virus controls and the other group was administered lithium carbonate (Li2 CO3, ultra-pure; Alpha Therapeutics, Danville, Mass. USA) placed in the drinking water at a concentration of 1 mM as previously described from this laboratory (Gallicchio et al., 1993). Lithium treatment was initiated 7 days prior to virus infection. […] Lithium was initiated 7 days before virus infection and was continued for the duration of the study. Plasma lithium levels from animals bled by cardiac puncture on the days of examination were monitored by use of flame photometry (Model no. 943, IL Instruments, Lexington, Mass. USA). Virus-infected controls and virus-infected mice treated with lithium were serially sacrificed 1, 5, 9, 13, 17 and 21 weeks following virus inoculation for determination of lithium treatment on hematopoiesis following administration in LP-BMS5 MuLV infected animals.

[14] = test system: normal bone marrow cells; assay: AZT toxicity on normal bone marrow cells in vitro, overall; settings: normal bone marrow cells with AZT
Experimental: These studies were performed in vitro with normal bone marrow cells incubated in the presence of AZT and Li-GLA.

[15] = week 3, Lithium Control (1 mM), listed as lithium

Molecule: 2',2'-Dideoxyinosine [ddI]
- CC50 [1]: 100 µM
- CC50 [2]: 1 µM

Molecule: 2,3'-Dideoxycytosine [ddC]
- CC50 [1]: 10 µM
- CC50 [2]: 0.6 µM

Molecule: Cc1cn([C@H]2C[C@H](N=[N+]=[N-])[C@@H](CO)O2)c(=O)[nH]c1=O [AZT, 3'-azido-3'-deoxythymidine]
- Lymphocytes and monocytes ([3]; mouse, in vivo): Lower, but less significant, levels
- BFU-E (Erythroid) colonies ([4]; AZT 0.01 μM): 43.5 ± 5
- BFU-E (Erythroid) colonies ([4]; AZT 0.1 μM): 37.5 ± 3
- BFU-E (Erythroid) colonies ([4]; AZT 1.0 μM): 21.5 ± 5
- BFU-E (Erythroid) colonies ([4]; AZT 10.0 μM): 14.5 ± 2
- Toxicity leading to discontinuation ([5]; after 6 months): thrombocytopenia, neutropenia, and anemia
- Toxicity of AZT [6]: myelosuppression and bone marrow toxicity; also recorded: the development of virus resistance and bone marrow suppression
- CFU-Meg (Megakaryocyte) colonies ([7]; AZT 0.01 μM): 16.0 ± 3
- CFU-Meg (Megakaryocyte) colonies ([7]; AZT 0.1 μM): 10.5 ± 3
- CFU-Meg (Megakaryocyte) colonies ([7]; AZT 1.0 μM): 6.5 ± 3
- CFU-Meg (Megakaryocyte) colonies ([7]; AZT 10.0 μM): 2.5 ± 2
- CFU-GM (Myeloid) colonies ([8]; AZT 0.01 μM): 53.5 ± 3
- CFU-GM (Myeloid) colonies ([8]; AZT 0.1 μM): 39.5 ± 3
- CFU-GM (Myeloid) colonies ([8]; AZT 1.0 μM): 28.5 ± 4
- CFU-GM (Myeloid) colonies ([8]; AZT 10.0 μM): 14.5 ± 3
- Tolerated AZT dose with lithium [9]: up to 1,000 mg
- Tolerated zidovudine dose with lithium ([9]; without observable signs of toxicity (Herbert et al., 1988)): up to 1000 mg/day

Molecule: O=C([O-])[O-].[Li+].[Li+] [Lithium, lithium carbonate]
- Reduction in eosinophils ([3]; AZT with lithium treatment): prevented this reduction in eosinophils observed with AZT
- Thrombocytopenia ([3]; following lithium, each week examined, both AZT groups): no thrombocytopenia
- Eosinophils ([3]; week 1, Lithium Control (1 mM)): 100 Percent Control
- Hematocrit ([3]; week 1, Lithium Control (1 mM)): 98 Percent Control
- Neutrophils ([3]; week 1, Lithium Control (1 mM)): 100 Percent Control
- Platelets ([3]; week 1, Lithium Control (1 mM)): 100 Percent Control
- Eosinophils ([3]; week 2, Lithium Control (1 mM)): 100 Percent Control
- Hematocrit ([3]; week 2, Lithium Control (1 mM)): 82 Percent Control
- Neutrophils ([3]; week 2, Lithium Control (1 mM)): 54 Percent Control
- Platelets ([3]; week 2, Lithium Control (1 mM)): 93 Percent Control
- Eosinophils ([3]; week 3, Lithium Control (1 mM)): 100 Percent Control
- Hematocrit ([3]; week 3, Lithium Control (1 mM)): 101 Percent Control
- Neutrophils ([3]; week 3, Lithium Control (1 mM)): 65 Percent Control
- Platelets ([3]; week 3, Lithium Control (1 mM)): 93 Percent Control
- Neutrophils [3, 15]: 120 Percent Control
- Platelets [3, 15]: 116 Percent Control
- Eosinophils ([3]; week 4, Lithium Control (1 mM)): 100 Percent Control
- Hematocrit ([3]; week 4, Lithium Control (1 mM)): 100 Percent Control
- Neutrophils ([3]; week 4, Lithium Control (1 mM)): 61 Percent Control
- Platelets ([3]; week 4, Lithium Control (1 mM)): 74 Percent Control
- Eosinophils ([3]; week 5, Lithium Control (1 mM)): 100 Percent Control
- Hematocrit ([3]; week 5, Lithium Control (1 mM)): 98 Percent Control
- Neutrophils ([3]; week 5, Lithium Control (1 mM)): 54 Percent Control
- Platelets ([3]; week 5, Lithium Control (1 mM)): 69 Percent Control
- Eosinophils ([3]; week 6, Lithium Control (1 mM)): 146 Percent Control
- Hematocrit ([3]; week 6, Lithium Control (1 mM)): 94 Percent Control
- Neutrophils ([3]; week 6, Lithium Control (1 mM)): 98 Percent Control
- Platelets ([3]; week 6, Lithium Control (1 mM)): 69 Percent Control
- Eosinophils ([3]; week 7, Lithium Control (1 mM)): 100 Percent Control
- Hematocrit ([3]; week 7, Lithium Control (1 mM)): 98 Percent Control
- Neutrophils ([3]; week 7, Lithium Control (1 mM)): 120 Percent Control
- Platelets ([3]; week 7, Lithium Control (1 mM)): 116 Percent Control
- Eosinophils ([3]; week 8 (+ lithium from week 5 in combination group), AZT 1.0 mg/ml): 110 Percent Control
- Eosinophils ([3]; week 8 (+ lithium from week 5 in combination group), AZT 2.5 mg/ml (AZT column headed 2 mg/ml)): 164 Percent Control
- Hematocrit toxicity ([3]; week 8, lithium versus AZT controls): the same level of toxicity as the AZT controls
- Eosinophils ([3]; week 8, Lithium Control (1 mM)): 107 Percent Control
- Hematocrit ([3]; week 8, Lithium Control (1 mM)): 88 Percent Control
- Neutrophils ([3]; week 8, Lithium Control (1 mM)): 90 Percent Control
- Platelets ([3]; week 8, Lithium Control (1 mM)): 79 Percent Control
- DNA polymerase activity ([10]; HSV): inhibition of DNA polymerase activity
- Absolute neutrophil and platelet counts ([5]; within 3 days, 300 mg t.i.d. with methylprednisolone): a remarkable rise
- Myelosuppression and marrow toxicity of AZT [11]: reduced the myelosuppression and marrow toxicity of AZT significantly
- Splenomegaly and hypergammaglobulinemia (IgM) ([12]; LP-BM5 MuLV animals (Gallicchio et al., 1994)): reduction in the splenomegaly and hypergammaglobulinemia
- Toxicity following dose-escalation of AZT ([12]; MAIDS model in vivo (Gallicchio et al., 1995)): reduced the immunochematopoietic toxicity
- Hematopoietic progenitor cells from bone marrow or spleen ([12]; in vivo, with zidovudine (literature)): effectively increased the number of hematopoietic progenitor cells
- Immune function status ([13]; murine model (MAIDS)): significantly improves immune function status
- Hematopoiesis in MAIDS mice ([13]; versus animals not receiving lithium): significant hematopoiesis
- Bone marrow BFU-E ([13]; versus viral controls): increased BFU-E that peaked on week 9
- Bone marrow CFU-GM ([13]; versus viral controls): increased CFU-GM compared to viral controls that peaked on week 9
- Bone marrow CFU-Meg ([13]; versus viral controls): increased, although not until week 17 of examination
- Splenic BFU-E ([13]; versus viral controls): increased at all time points examined
- Splenic CFU-GM ([13]; versus viral controls): significantly increased at all time points compared to viral controls
- Splenic CFU-Meg ([13]; versus viral controls): increased significantly
- Absolute neutrophils ([13]; versus virus control group, FIG. 2a): increased
- Absolute lymphocytes ([13]; versus virus control group, FIG. 2b): increased
- Effect on packed red cell volume (hematocrit) ([13]; versus virus-control group, FIG. 1a): decreased the reduction
- Effect on white blood cell count ([13]; versus virus-control group, FIG. 1b): decreased the reduction
- Effect on platelets ([13]; versus virus-control group, FIG. 1c): decreased the reduction
- Signs of lithium toxicity, i.e., tremor ([13]; virus-infected mice receiving lithium): no demonstrable signs of lithium toxicity
- Patients responding with neutrophilia ([9]; 5 AIDS patients (report)): 3 of 5 patients
- Patients responding with neutrophilia ([9]; AIDS patients (Worthington 1990)): one of three
- Patients tolerating higher doses of AZT (up to 1,000 mg) [9]: 3 of the 5 patients
- Patients with significant hematopoiesis [9]: Three of the five patients
- Patients responding with neutrophilia ([9]; lithium at least 4 weeks, no AZT (Parenti et al., 1988)): 6 of 7
- Lithium toxicity ([9]; no AZT (Parenti et al., 1988)): further lithium usage was limited due to the presence of lithium toxicity
- Patients demonstrating significant hematopoiesis ([9]; with zidovudine (Herbert et al., 1988)): Three of the 5

Molecule: [Cl-].[Li+] [lithium chloride]
- Concentration inhibiting herpes simplex virus replication [10]: 5 to 30 mM
- Myelosuppression and marrow toxicity of AZT [11]: reduced the myelosuppression and marrow toxicity of AZT significantly
- Effect on AZT toxicity / colony formation [14]: there is a reduction in AZT toxicity; however, the values never reach the level of the normal control; also recorded: reduced AZT toxicity but was not effective in increasing cell growth and colony formation
